Assays:
[1] = Metabolic stability: unbound intrinsic clearance in liver microsomes; assay type: in vitro ADME; details: rat; liver microsomes 0.25 mg protein/mL, 0.5 μM compound, pH 7.4, 37° C.; Cl int unbound=Cl int/fu mic; compounds used as acid addition salts; read-out: Cl int, mic unb. (r) (unbound intrinsic clearance)
Procedure: Samples of the tested compounds (0.5 μM) were preincubated together with rat liver microsomes (0.25 mg of microsomal protein/mL) in 0.05 M potassium phosphate buffer of pH 7.4 in microtiter plates at 37° C. for 5 minutes. The reaction was started by adding NADPH (1.0 mM). After 0, 5, 10, 15, 20 and 30 minutes, an aliquot was removed, the reaction was cooled and stopped by adding twice the amount of quench solution consisting of acetonitrile/methanol 1:1, and containing […] carbutamide as internal standard. The samples were frozen until analyzed. The remaining concentration of undegraded test substance was determined by liquid chromatography-tandem mass spectrometry (LC-MS/MS). The half-life (t1/2) was determined from the gradient of the ratio of the signal of (test substance/internal standard)/unit time plot, allowing the calculation of the half-life of the test substance, assuming first order kinetics, from the decrease in the concentration of the compound with time. The microsomal clearance (mClint) was calculated as follows: mClint=((ln(2)/t 1/2)/Microsomal Protein Concentration (mg/ml))*1000, leading to the unit of uL/min/mg. The scaled clearance (mClin_scaled) was calculated as mCLint_scaled=m CLint*(Microsomal Yield (mg/kg BW))/1000000*60, leading to the units L/h/kg. The Microsomal Yield is defined by the specifics of the used microsomes. Calculations were modified from refer-ences: Di, The Society for Biomolecular Screening, 2003, 453-462; Obach, D M D, 1999 vol 27. N 11, 1350-1359.
A suspension of 0.25 mg/ml microsomal protein spiked with 0.5 μM of test compound was pipetted on one side of a HTDialysis device (HTDialysis LLC,37 Ledgewood Drive, Gales Fery Conn. 06335) separated by a membrane with a MWcut off 12-14 K. 50 mM K-Phosphate buffer (pH 7.4) was added on the other side of the well. After incubation at 37° C. for 4 h while shaking at 150 rpm, aliquots of both sides were taken, quenched with MeOH/ACN 1:1 and 0.2 μM of internal standard and frozen until analy-sis by LCMSMS.
Cl int unbound=Cl int/fu mic
The compounds were used in form of their respective acid addition salts.

[2] = biological target: T1, 5-HT2C receptor (Homo sapiens, UniProt P28335); experiment: Human 5-HT2C functional assay (beta-arrestin2 recruitment, U2OS_HTR2C_β-Arrestin cells); assay type: cell-based; details: compounds used as acid addition salts; for EC50: U2OS_HTR2C_β-Arrestin cells, 1.5 h incubation, read-out: EC50 5-HT2C (potency in functional assay); for Emax: relative efficacy vs response to 10 µM 5-HT or maximal effect of 5-HT (100%)
T1 construct: host or cells: U2OS
T1 sequence (P28335 33-458): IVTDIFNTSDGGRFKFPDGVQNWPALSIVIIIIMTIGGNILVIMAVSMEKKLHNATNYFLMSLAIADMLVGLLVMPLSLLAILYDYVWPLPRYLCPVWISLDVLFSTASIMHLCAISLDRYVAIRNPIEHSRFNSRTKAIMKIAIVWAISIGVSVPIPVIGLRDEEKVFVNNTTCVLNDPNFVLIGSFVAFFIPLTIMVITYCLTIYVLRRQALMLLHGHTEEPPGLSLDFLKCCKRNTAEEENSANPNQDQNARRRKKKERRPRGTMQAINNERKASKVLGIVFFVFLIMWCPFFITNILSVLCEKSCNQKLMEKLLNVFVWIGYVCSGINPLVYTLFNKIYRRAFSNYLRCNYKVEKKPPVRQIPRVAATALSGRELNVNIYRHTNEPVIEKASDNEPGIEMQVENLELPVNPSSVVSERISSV
T1 sequence (P32121 whole entry partner): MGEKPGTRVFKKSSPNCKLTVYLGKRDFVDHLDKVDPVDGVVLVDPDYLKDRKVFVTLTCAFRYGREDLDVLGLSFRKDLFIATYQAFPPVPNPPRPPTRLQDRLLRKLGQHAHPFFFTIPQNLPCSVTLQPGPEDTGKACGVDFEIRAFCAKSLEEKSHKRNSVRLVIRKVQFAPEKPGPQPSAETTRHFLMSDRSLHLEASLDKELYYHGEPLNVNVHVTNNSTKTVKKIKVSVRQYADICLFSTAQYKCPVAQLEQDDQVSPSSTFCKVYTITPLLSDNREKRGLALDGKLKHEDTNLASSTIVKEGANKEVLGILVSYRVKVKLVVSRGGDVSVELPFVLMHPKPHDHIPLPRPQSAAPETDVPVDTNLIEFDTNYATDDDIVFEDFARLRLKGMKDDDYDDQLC
Procedure: The functional activity of compounds of formula I was assayed by incubation with U2OS_HTR2C_β-Arrestin cells (DiscoverX, 93-0289C3) to induce beta-arrestin2 recruitment to the 5-HT2C receptor. The agonist-induced recruitment and proximity of the receptor and beta-arrestin2 leads to complementation and formation of active β-galactosidase. The enzyme complementation results in enzyme activity, which is measured following the termination of the agonist incubation using DiscoveRx's detection reagent, which contains a chemiluminescent substrate which produces a high intensity signal. Cells were plated and a medium-change to a 1% serum containing medium was performed 24 h later. The next day, test compounds were added and incubated for 1.5 h before addition of detection reagent.
The response produced was measured and compared with the response produced by 10 [mu]M 5-HT or the maximal effect induced by 5-HT (defined as 100%) to which it was expressed as a percentage response (relative efficacy). Dose response curves were con-structed using Graphpad Prism (Graph Software Inc.) or using in house adapted software using a 4 parameter dose response model with variable slope (fit=(Bottom+(Top−Bottom)/(1+10^((LogEC50−x)*Hill Slope))res=(y−fit)). Results are compiled in the table below.

Row | Structure (SMILES) | CLint scaled at 0.5 μM [1] | EC50 [2] | Emax [2]
1 | COc1cc(OCCC(F)(F)C(F)(F)F)c(F)cc1CNC(=O)[C@@H]1CCCN1 [Example 24, (2S)—N-[[5-Fluoro-2-methoxy-4-(3,3,4,4,4-pentafluorobutoxy)phenyl]methyl]-pyrrolidine-2-carboxamide] | < 500 mL/min/kg | 5 to 15 nM | > 70%
2 | COc1cc(OCC(C)CC(F)(F)F)c(F)cc1CNC(=O)[C@@H]1CCCN1 (stereo partly drawn) [Example 25, (2S)—N-[[5-Fluoro-2-methoxy-4-(4,4,4-trifluoro-2-methyl-butoxy)phenyl]methyl]-pyrrolidine-2-carboxamide] | 500 to 1330 mL/min/kg | < 5 nM | > 70%
3 | COc1cc(OCC2CC2(F)F)c(F)cc1CNC(=O)[C@@H]1CCCN1 (stereo partly drawn) [Example 26, (2S)—N-[[4-[(2,2-Difluorocyclopropyl)methoxy]-5-fluoro-2-methoxy-phenyl]-methyl]pyrrolidine-2-carboxamide] | < 500 mL/min/kg | 15 to 30 nM | > 70%
4 | COc1cc(OC2CC(F)(F)C2)c(F)cc1CNC(=O)[C@@H]1CCCN1 [Example 28, (2S)—N-[[4-(3,3-Difluorocyclobutoxy)-5-fluoro-2-methoxy-phenyl]methyl]-pyrrolidine-2-carboxamide] | < 500 mL/min/kg | 5 to 15 nM | > 70%
5 | COc1cc(OCC2CC(F)(F)C2)c(F)cc1CNC(=O)[C@@H]1CCCN1 [Example 29, (2S)—N-[[4-[(3,3-Difluorocyclobutyl)methoxy]-5-fluoro-2-methoxy-phenyl]methyl]-pyrrolidine-2-carboxamide] | < 500 mL/min/kg | 5 to 15 nM | > 70%
6 | COc1cc(OCC2CC(F)(F)C2(F)F)c(F)cc1CNC(=O)[C@@H]1CCCN1 (stereo partly drawn) [Example 30, (2S)—N-[[5-Fluoro-2-methoxy-4-[(2,2,3,3-tetrafluorocyclobutyl)methoxy]phenyl]-methyl]pyrrolidine-2-carboxamide] | < 500 mL/min/kg | < 5 nM | > 70%
7 | COc1cc(OCC2CCC(F)(F)C2)c(F)cc1CNC(=O)[C@@H]1CCCN1 (stereo partly drawn) [Example 31, (2S)—N-[[4-[(3,3-Difluorocyclopentyl)methoxy]-5-fluoro-2-methoxy-phenyl]methyl]-pyrrolidine-2-carboxamide] | < 500 mL/min/kg | 5 to 15 nM | > 70%
8 | COc1cc(OCC(F)(F)C(F)F)c(F)cc1CNC(=O)[C@@H]1CCCN1C [Example 36, (2S)—N-[[5-Fluoro-2-methoxy-4-(2,2,3,3-tetrafluoropropoxy)phenyl]methyl]-1-methyl-pyrrolidine-2-carboxamide] | 500 to 1330 mL/min/kg | 15 to 30 nM | > 70%
9 | COc1cc(OC2CC(F)(F)C2)c(F)cc1CNC(=O)[C@@H]1CCCN1C [Example 37, (2S)—N-[[4-(3,3-Difluorocyclobutoxy)-5-fluoro-2-methoxy-phenyl]methyl]-1-methyl-pyrrolidine-2-carboxamide] | 500 to 1330 mL/min/kg | 5 to 15 nM | > 70%
10 | COc1cc(OCC2CCC(F)(F)C2)c(F)cc1CNC(=O)[C@@H]1CCCN1C (stereo partly drawn) [Example 38, (2S)—N-[[4-[(3,3-Difluorocyclopentyl)methoxy]-5-fluoro-2-methoxy-phenyl]methyl]-1-methyl-pyrrolidine-2-carboxamide] | 1330 to 4170 mL/min/kg | 15 to 30 nM | > 70%
11 | COc1cc(OC2CCC(F)(F)CC2)c(F)cc1CNC(=O)[C@@H]1CCCN1C [Example 40, (2S)—N-[[4-(4,4-Difluorocyclohexoxy)-5-fluoro-2-methoxy-phenyl]methyl]-1-methyl-pyrrolidine-2-carboxamide] | 500 to 1330 mL/min/kg | 15 to 30 nM | > 70%
12 | [2H]C1([2H])NC([2H])(C(=O)NCc2cc(F)c(OC3CCC(C(F)(F)F)CC3)cc2OC)C([2H])([2H])C1([2H])[2H] (stereo not drawn) [Example 42, 2,3,3,4,4,5,5-Heptadeuterio-N-[[5-fluoro-2-methoxy-4-[4-(trifluoromethyl)cyclohexoxy]phenyl]methyl]pyrrolidine-2-carboxamide] | < 500 mL/min/kg | < 5 nM | > 70%

Continued, values first:

Row | CLint scaled at 0.5 μM [1] | EC50 [2] | Emax [2] | Structure (SMILES)
13 | 500 to 1330 mL/min/kg | 5 to 15 nM | > 70% | COc1cc(OCC2(C(F)(F)F)CC2)c(F)cc1CNC(=O)[C@@H]1CCCN1 [Example 27, (2S)—N-[[5-Fluoro-2-methoxy-4-[[1-(trifluoromethyl)cyclopropyl]methoxy]phenyl]-methyl]pyrrolidine-2-carboxamide]
14 | < 500 mL/min/kg | 5 to 15 nM | > 70% | COc1cc(OCC2CCC(F)(F)CC2)c(F)cc1CNC(=O)[C@@H]1CCCN1 [Example 32, (2S)—N-[[4-[(4,4-Difluorocyclohexyl)methoxy]-5-fluoro-2-methoxy-phenyl]methyl]-pyrrolidine-2-carboxamide]
15 | < 500 mL/min/kg | < 5 nM | > 70% | COc1cc(O[C@H]2CC[C@H](C(F)(F)F)CC2)c(F)cc1CNC(=O)[C@@H]1CCCN1 [Example 33, (S)—N-(5-Fluoro-4-((trans-4-trifluoromethyl-cyclohexyl)oxy)-2-methoxybenzyl)-pyrrolidine-2-carboxamide]
16 | 1330 to 4170 mL/min/kg | 5 to 15 nM | > 70% | COc1cc(O[C@H]2CC[C@@H](C(F)(F)F)CC2)c(F)cc1CNC(=O)[C@@H]1CCCN1 [Example 34, (S)—N-(5-Fluoro-4-((cis-4-trifluoromethyl-cyclohexyl)oxy)-2-methoxybenzyl)-pyrrolidine-2-carboxamide]
17 | 500 to 1330 mL/min/kg | < 5 nM | > 70% | COc1cc(OC2CCCC(C(F)(F)F)C2)c(F)cc1CNC(=O)[C@@H]1CCCN1 (stereo partly drawn) [Example 35, (2S)—N-[[5-Fluoro-2-methoxy-4-[3-(trifluoromethyl)cyclohexoxy]phenyl]methyl]-pyrrolidine-2-carboxamide]
18 | 500 to 1330 mL/min/kg | 15 to 30 nM | > 70% | COc1cc(O[C@H]2CC[C@H](C(F)(F)F)CC2)c(F)cc1CNC(=O)[C@@H]1CCCN1C [Example 39, (2S)—N-(5-Fluoro-2-methoxy-4-((trans-4-(trifluoromethyl)cyclohexyl)oxy)benzyl)-1-methyl-pyrrolidine-2-carboxamide]
19 | < 500 mL/min/kg | < 5 nM | 50 to 70% | COc1cc(O[C@H]2CC[C@H](C(F)(F)F)CC2)c(F)cc1CNC(=O)[C@@H]1CCN1 [Example 41, (2S)—N-[[5-Fluoro-2-methoxy-4-[trans 4-(trifluoromethyl)cyclohexoxy]phenyl]-methyl]azetidine-2-carboxamide]
20 | < 500 mL/min/kg | 15 to 30 nM | > 70% | COc1cc(OC2CCC(CF)CC2)c(F)cc1CNC(=O)[C@@H]1CCCN1 (stereo partly drawn) [Example 43, (2S)—N-[[5-Fluoro-4-[4-(fluoromethyl)cyclohexoxy]-2-methoxy-phenyl]methyl]-pyrrolidine-2-carboxamide]
